Laboratory results: US8258173B2, “Melatonin derivatives and their use as antioxidants” (University of Sunderland, priority 2006, dated 2012)
Like-named read-outs stand apart in the source and are kept apart here.

How the values were obtained:
[1] = system: HPV-16 immortalized human keratinocyte cell line; assay: Cell line test (MTT), keratinocyte proliferation; assay type: cell-based; details: for anti-proliferative activity (in words): HPV-16 immortalized keratinocyte proliferation; for IC50: read-out: MTT assay IG50
Text: 3-[4′,5′-Dimethylthiazol-2′-yl]-2,5-diphenyltetrazolium bromide (MTT), dimethyl sulphoxide (DMSO), isopropranol, foetal calf serum, and trypan blue were purchased from Sigma-Aldrich. Trypsin 250 was purchased from DIFCO. Ethylenediaminetetraacetic acid (EDTA), glucose, sodium phenol red, sodium chloride, potassium chloride, sodium hydrogen carbonate, potassium dihydrogen phosphate, and disodium hydrogen phosphate were purchased from BDH. Keratinocyte-SFM was purchased from GIBCO. For spectroscopic measurements, MRX Microplate Reader was used, which was controlled by Revelation Version 3.04.
The following solutions were prepared for use in the cell line test (MTT). • 1. Sodium chloride (8 g), potassium chloride (0.2 g), disodium hydrogen phosphate (1.15 g) and potassium dihydrogen phosphate (0.2 g) were dissolved in deionized water (1 L). This PBS solution was warmed to 37° C. at the time of use. • 2. Trypsin 250 (2.5 g), EDTA (0.2 g), glucose (1.0 g), potassium chloride (0.4 g), sodium chloride (8.0 g), sodium phenol red (0.002 g), and sodium hydrogen carbonate (0.58 g) were dissolved in deionized water (1 L). This solution was warmed to 37° C. at the time of use. • 3. Trypsin inhibitor solution was created by using feotal calf (1 ml) and was diluted in 100 ml of PBS. • 4. MTT powder (0.125 g) was dissolved in PBS buffer (25 ml) to give 5 mg/ml of MTT stock solution, which was stored at −20° C. and wrapped in foil to protect from light to create MTT stock solution. • 5. MTT stock solution was defrosted and diluted 1 in 10 in PBS buffer to give 0.5 mg/ml of working solution, which was prepared at the time of use to create an MTT working solution. • 5. Trypan blue solution was created by dissolving Trypan blue (0.04 g) in deionized water (10 ml).
The cell culture consisted of an HPV-16 immortalized human keratinocyte cell line from American Type Culture Collection (ATCC).
Cells were cultured in Serum-Free Keratinocyte Medium (Keratinocyte-SFM) supplemented with recombinant epidermal growth factor (rEGF) and bovine pituitary extract (BPE) in a T-75 flask under conditions of 5% C02 at 37° C. Fluid in the flask was changed with fresh complete medium every 3 days.
When cells grew to 60-80% confluence as determined under a microscope, the flask was washed with PBS. Small amount of trypsin-EDTA solution (1-2 ml) was added to the flask and incubated for 5 minutes at 37° C. When approximately 90% of the cells were dislodged, trypsin inhibitor solution (10 ml) was added to stop trypsin reaction. The cells were spun at 500 rpm for 10 minutes at room temperature. The cell pellet was gently resuspended in 10 ml of media. The basal cells were counted with a haemocytometer by adding trypan blue solution to determine viable cells. The cells were adjusted the density to 1×10^5 cells/mL in media.
A stock solution of each compound was prepared by dissolving compound (20 mg) in DMSO (1 ml), to give 20 mg/mL of stock solution.
A working solution was prepared by diluting a stock solution (20 μl) into media (1.98 ml) to give 200 μg/mL of working solution.
The following steps were performed to carry out the MMT experiment. 100 μl of resuspended cell suspension was added to test wells in 96-well plate, omitting column 11. Media was aspirated from each well after plate was incubated for 24 hours at 37° C., 5% CO2, then wells were washed with PBS. 100 μl of media containing 1% DMSO was added to each test well, omitting column 2. 200 μl of working solution of compound was added to each the wells, B2 to G2. 100 μl of solution was transferred to perform serial dilutions across the plate from column 2 up to column 9, and 100 μl of solution was discard from column 9. The plate was incubated for 3 days at 37° C., 5% C02. Media was removed, and wells were washed with PBS. Then 200 μl of MTT working solution was added to each well. After the plate was incubated for 2 hours at 37° C., MTT solution was removed and wells were washed with PBS. […]

[2] = system: lipid peroxidation in bovine brain extract liposomes (hydroxyl radicals); assay: Antioxidant test, TBA assay (lipid peroxidation); assay type: biochemical; details: for IC50: brain extract liposomes, FeCl3/ascorbic acid, 37° C. 30 min, absorbance 532 nm; for antioxidant activity (in words): scavenging hydroxyl radicals, protection against lipid peroxidation
Procedure: Ascorbic acid and propylgallate were purchased from Aldrich. N-Butanol and ethanol were purchased from BDH. Butylated hydroxytoluene (BHT), bovine brain extract, FeCl3, thiobarbituric acid (TBA) and PBS (phosphate buffered saline) tablets were purchased from Sigma. For spectroscopic measurements, a UNICAM UVNIS Spectrometer (UV2) was used. A well-controlled water bath was utilized for incubating the test system at the required temperatures. Plastic falcon tubes were used to accommodate the assay. Accurate pipettes were used to dispense the reagents.
The following liposomes and reagents were prepared in order to carry out the experiments. • 1. Brain extract (50 mg) was weighed into a clean universal container. About 7 glass balls and 10 cm^3 of PBS were added. The mixture was sonicated in an ice-water bath until the lipid was suspended and the suspension was homogeneous and milky in appearance. The suspension was kept cool during the sonication, although care was taken not to overfill the bath with ice as the sonication becomes relatively ineffective. • 2. Ascorbic acid (0.0176 g) was dissolved in deionised water and diluted in 100 cm^3 of volumetric flask. • 3. Ferric chloride hexahydrate (0.0270 g) was dissolved in deionized water and diluted in 100 cm^3 of volumetric flask. • 4. Sodium hydroxide (1 g) was dissolved in 500 cm^3 of deionized water. • 5. Phosphate buffered saline was prepared (PBS, pH=7.4). • 6. HCl (338 cm^3, 37%) was diluted with 162 cm^3 deionized water to give 500 cm^3 of 25% HCl. • 7. BHT (5 g) was dissolved in 250 cm^3 ethanol. • 8. TBA (5 g) was added to 500 cm^3, 50 mM NaOH, and the solution was heated with stirring to dissolve all the TBA. • 9. PG (0.1061 g) was dissolved in 500 cm^3 deionized water. • 10. A stock solution of test compound at 10 mg/cm^3 was prepared, the concentration depended on the estimated activity of the substance, and serial dilutions were made to obtain 5.0, 2.5, 1.25, 0.625, 0.3125 and 0.15625 mg/cm^3. The stock solution and these six dilutions were screened in the lipid peroxidation—TEA test, in attempt to obtain a dose response curve for antioxidant efficacy against concentration for the substance.
Sixty-eight centrifuge tubes were numbered. • 1. Test substance (0.1 cm^3) was added to tubes; 10 mg/cm^3 to No. 13-20 of tubes, 5 mg/cm^3 to No. 21-28, 2.5 mg/cm^3 to No. 29-36, 1.25 mg/cm^3 to No. 37-44, 0.625 mg/cm^3 to No. 45-52, 0.3125 mg/cm^3 to No. 53-60, 0.15625 mg/cm^3 to No. 61-68. • 2. PG (0.1 cm^3) was added to 9-12. • 3. Ethanol (0.1 cm^3) was added to No. 5-8. • 4. Deionized water (0.3 cm^3) was added to No. 1-4, deionized water (0.4 cm^3) was added to No. 17-20, 25-28, 33-36, 41-44, 49-52, 57-60, and 65-68. • 5. Liposome (0.2 cm^3) was added to No. 1-4, 5-8, 9-12, 13-16, 21-24, 29-32, 37-40, 45-48, 53-56 and 61-64. • 6. PBS (0.5 cm^3) was added to all tubes. • 7. Ferric chloride (0.1 cm^3, 1 mM) was added to No. 5-8, 9-12, 13-16, 21-24, 29-32, 37-40, 45-48, 53-56, and 61-64. • 8. Ascorbic acid (0.1 cm^3, 1 mM) was added to No. 5-8, 9-12, 13-16, 21-24, 29-32, 37-40, 45-48, 53-56 and 61-64. • 9. The tubes were incubated at 37° C. for 30 min. • 10. BHT (0.1 cm^3, 2%), TBA (0.5 cm^3, 1%) and HCl (0.5 cm^3, 25%) were added to all tubes. • 11. The tubes were heated at 85-90° C. for […]. • 12. The tubes were removed from heater and cooled. • 13. N-Butanol (2.5 cm^3) was added to all tubes. The tubes were then shaken to mix and spun at 3500 rpm at room temperature for 10 min. • 14. N-Butanol (2.5 cm^3) was removed and placed in cuvettes. • 15. Absorbance at 532 nm on a spectrophotometer was recorded, using n-butanol as blank. • 16. The mean and standard deviation were calculated. The % inhibition was calculated using equation (1).
[formula] • All data are expressed and mean±SEM (n=4). % inhibition was used to construct the graph and calculate IC50.

[3] = Homo sapiens, Keratinocyte, 72 h, HPV-16 immortalized human keratinocytes, 3 days incubation
[4] = HPV-16 immortalized human keratinocytes, 3 days incubation
[5] = Homo sapiens, Keratinocyte, 72 h

COc1ccc2[nH]cc(C3C=NN(C(C)=O)C3)c2c1 (stereo not drawn) [1-Acetyl-4,5-dihydro-4-(5′-methoxyindol-3′-yl)-1H-pyrazole]
anti-proliferative activity (in words) [1]: much more activity than melatonin
IC50 [1, 3]: 150 µM
IC50 [2]: 210 µM
antioxidant activity (in words) [2]: almost the same antioxidant activity as melatonin

COc1cc(OC)c2[nH]ccc2c1CCN [4-(2-Aminoethyl)-5,7-dimethoxyindole]
IC50 [1, 4]: 53.9 µM
IC50 [1, 3]: < 100 µM
IC50 [2]: 51 µM

CC(=O)NCCc1c[nH]c2ccc(O)cc12 [N-Acetylseratonin, N-acetylserotonin, reference compound]
IC50 [1, 4]: > 917 µM
anti-proliferative activity (in words) [1]: inactive
IC50 [2]: 750 µM

COc1ccc2[nH]cc(CCNC(C)=O)c2c1OC [4-Methoxymelatonin]
anti-proliferative activity (in words) [1]: much more activity than melatonin
IC50 [1, 3]: 119 µM
IC50 [2]: 280 µM
antioxidant activity (in words) [2]: almost the same antioxidant activity as melatonin

NCCc1c[nH]c2ccc(O)cc12 [serotonin, reference compound]
anti-proliferative activity (in words) [1]: inactive

COc1ccc(N)c(C(=O)CCNC(C)=O)c1 [AMK, reference compound]
IC50 [1, 4]: 408 µM
IC50 [2]: 280 µM

COc1ccc2[nH]cc(CCNC(C)=O)c2c1 [Melatonin]
anti-proliferative activity (in words) [1]: inactive
IC50 [1, 3]: > 862 µM

N-ethylformylmelatonin
anti-proliferative activity (in words) [1]: much more activity than melatonin
antioxidant activity (in words) [2]: almost the same antioxidant activity as melatonin

COc1cc(OC)c2[nH]ccc2c1C(C[N+](=O)[O-])C[N+](=O)[O-] [5,7-Dimethoxy-4-{2′-nitro-1′-(nitromethyl)ethyl}indole]
IC50 [1, 5]: 145 µM
IC50 [2]: 3970 µM

COc1cc(OC)c2[nH]ccc2c1C1C=NN(C(C)=O)C1 (stereo not drawn) [1-Acetyl-4,5-dihydro-4-(5′,7′-dimethoxyindol-4′-yl)-1H-pyrazole]
IC50 [1, 3]: 355 µM
IC50 [2]: 1790 µM

COc1cc(OC)c2[nH]cc(C=C[N+](=O)[O-])c2c1 [5,7-Dimethoxy-3-(2-nitroethenyl)-indole]
anti-proliferative activity (in words) [1]: very low IG50 values comparative to dithranol
IC50 [1, 3]: 13.5 µM
IC50 [2]: 810 µM

COc1ccc2[nH]cc(CCN)c2c1OC [4,5-Dimethoxytryptamine]
IC50 [1, 4]: 82.5 µM
IC50 [1, 3]: < 100 µM
IC50 [2]: 97 µM

COc1ccc2[nH]cc(C=C[N+](=O)[O-])c2c1 [5-Methoxy-3-(2-nitroethenyl)-indole]
anti-proliferative activity (in words) [1]: anti-proliferative effect
IC50 [1, 3]: 15.5 µM
IC50 [2]: 2510 µM

COc1cc(OC)c2[nH]ccc2c1C=C[N+](=O)[O-] [5,7-Dimethoxy-4-(2-nitroethenyl)-indole]
anti-proliferative activity (in words) [1]: very low IG50 values comparative to dithranol
IC50 [1, 3]: 6.62 µM
IC50 [2]: 600 µM

COc1ccc2[nH]cc(C(C[N+](=O)[O-])C[N+](=O)[O-])c2c1OC [4,5-Dimethoxy-3-bis(nitromethyl)methylindole]
IC50 [1, 5]: 126 µM
IC50 [2]: 1910 µM

COc1ccc2[nH]cc(C=C[N+](=O)[O-])c2c1OC [4,5-Dimethoxy-3-(2-nitroethenyl)-indole]
anti-proliferative activity (in words) [1]: very low IG50 values comparative to dithranol
IC50 [1, 3]: 22 µM
IC50 [2]: 440 µM

COc1cc(OC)c2[nH]cc(C(C[N+](=O)[O-])C[N+](=O)[O-])c2c1 [5,7-Dimethoxy-3-bis(nitromethyl)methylindole]
anti-proliferative activity (in words) [1]: anti-proliferative effect
IC50 [1, 5]: 20.2 µM
IC50 [2]: 1660 µM
